Test results published in patent US20220264924A1, “METHODS AND COMPOSITIONS FOR IMPROVED TASTE QUALITY” (ALMENDRA PTE LTD, priority 2019, published 2022).
Several values for one entry are separate records, joined by “and”; a condition that tells them apart may be missing. Equal entries are not always repeated.

Tests used:
[1] = tested on: human subject (sensory testing); conditions: cited from earlier work; for sweetness potency, times higher than sucrose: relative to sucrose (Tanaka 1987; Phillips 1989); for sweetness potency, times more potent than sucrose: sensory evaluations, relative to sucrose (Crammer and Ikan 1986)
[2] = water (Kinghorn 2002); cited from earlier work
[3] = tested on: human subject (sensory testing); assay: Sweetness Linger of standards in the sensory testing methodology; assay type: in vivo; conditions: perceived sweetness intensity @ 120 sec; standards in water: 10% Sucrose, 500 PPM REBA
Description: In various aspects, the present disclosure pertains to methods of testing the disclosed sweetener compositions, e.g., a sensory methodology or method for sweetener evaluation. In a particular aspect, the sensory methodology used is known as a “Flavor Profile Analysis” as has been previously described (see: B. T. Carr, S. D. Pecore, K. M. Gibes and G. E. DuBois, “Sensory Methods for Sweetener Evaluation”, Chapter 11 In Flavor Measurement, C. T. Ho and C. H. Manley, Eds., Marcel Dekker, New York, N.Y., 1993). The full set of sensory parameters that are assessed in the sensory testing method are: (a) Sweetness Intensity (which can be abbreviated in tables herein as “S”); (b) Sourness Intensity ((which can be abbreviated in tables herein as “So”); (c) Saltiness Intensity (which can be abbreviated in tables herein as “Sa”); (d) Bitterness Intensity (which can be abbreviated in tables herein as “B”); (e) Body/Mouthfeel Intensity (which can be abbreviated in tables herein as “B/MF”); (f) Astringency Intensity (which can be abbreviated in tables herein as “A”); (g) Sweetness Linger (which can be abbreviated in tables herein as “SL”); (h) Sweetness Appearance Time (which can be abbreviated in tables herein as “AT”); and (i) Sweetness Desensitization (which can be abbreviated in tables herein as “SD”). […]

[4] = tested on: human subject (sensory testing); assay: Sensory test: taste modulator effect on umami taste of MSG (Example 2); assay type: in vivo; conditions: 0-15 scale; average of three trials; MSG 12 mM
Protocol: (§1) Representative formulations within the scope of the disclosed formulations were prepared and subjected to sensory testing by the methods described above in the section entitled Testing Methodology, where formulations were rated on a 0-15 scales for the Taste Attributes: Umami Intensity (UI), Saltiness Intensity (SaI), Sourness Intensity (SoI), Bitterness Intensity (BI), Astringency Intensity (AI), and Mouthfeel Intensity (MF). In sensory test sessions, the number of samples evaluated was limited to four. In the initial phase of formulation screening, testing was carried out in triplicate with a single subject extensively experienced in the technique of flavor profile analysis.
(§2) This study assessed the effect of a disclosed taste modulation formulation on umami taste and other sensory perceptions as described above for the test method, i.e., Umami Intensity (UI), Sourness Intensity (SoI), Saltiness Intensity (SaI), Bitterness Intensity (BI), Mouthfeel Intensity (MF) and Astringency Intensity (AI).
(§3) The sensory protocol was as follows: • 1. Scramble ambient temperature samples so that each test solution is an unknown sample for sensory testing. • 2. Rinse mouth with 15 mL water while swishing vigorously followed by expectoration. • 3. Take 15 mL of the sample into the mouth and swish around vigorously for 15 sec scaling Umami Intensity (U), Sourness Intensity (So), Saltiness Intensity (Sa), Bitterness Intensity (B), Mouthfeel Intensity (MF) and Astringency Intensity (A) on 0-15 scales during this period and recording them in a table. • 4. Expectorate sample, rinse mouth vigorously with 15 mL water and expectorate at 15 sec. • 5. Note any change in sensory perceptions over the next 2 min and record observations in a table. • 6. Rinse mouth with 15 mL water with vigorous agitation in the mouth for 15 sec and expectorate. • 7. Wait a minimum of 15 min and repeat with next sample. • 8. Break sample code to identify samples.
Briefly, a stock solution of 10 mM KCl (746 mg/L)/3 mM MgCl2.6H2O (610 mg/L)/3 mM CaCl2 (333 mg/L) in 1.00 L water was prepared in a 1 L E-flask, stirring to full dissolution. 100 mL portions of the mineral salt solution were then transferred to two 250 mL plastic-capped glass bottles and 100 mL portions of water were added to the other two 250 mL plastic-capped glass bottles. Sample completion was carried out by addition of MSG as follows for Sample Nos. 1-4.
Three independent trials were carried out and the data are summarized below in Table 1, with individual results from each trial and average of the three trials as indicated.

[5] = tested on: human subject (sensory testing); assay: Sensory test: taste modulator effect on mouthfeel with MSG, varied MgCl2/CaCl2 (Example 4); assay type: in vivo; conditions: 0-15 scale, 12 mM MSG Stock Solution
Protocol: as §1, §3
as §2, with “effects” for “effect”
The sensory protocol was as described above in Example 2.
Briefly, a MSG Stock Solution of 12 mM MSG ([…]) was prepared and 100 mL portions of it were added to four 250 mL plastic-capped glass bottles. Sample preparation was completed as follows:
Eight independent trials were carried out and the average results are summarized below in Table 3.

[6] = tested on: human subject (sensory testing); conditions: R in Sucrose Equivalents of Sweetness; C in % (w/v); linear fit; cited from earlier work

## C=C1C[C@@]23CC[C@H]4[C@@](C)(CCC[C@@]4(C)C(=O)O[C@@H]4O[C@H](CO)[C@@H](O)[C@H](O)[C@H]4O)[C@@H]2CC[C@]1(O[C@@H]1O[C@H](CO)[C@@H](O)[C@H](O)[C@H]1O[C@@H]1O[C@H](CO)[C@@H](O)[C@H](O)[C@H]1O)C3 [Stevioside]
[1]
  sweetness potency, times higher than sucrose: 110-270 times

## Rebaudioside C
[1]
  sweetness potency, times higher than sucrose: 40-60 times

## C[C@H](CC[C@@H](O[C@@H]1O[C@H](CO[C@@H]2O[C@H](CO)[C@@H](O)[C@H](O)[C@H]2O)[C@@H](O)[C@H](O)[C@H]1O[C@@H]1O[C@H](CO)[C@@H](O)[C@H](O)[C@H]1O)C(C)(C)O)[C@H]1CC[C@@]2(C)[C@@H]3CC=C4[C@@H](CC[C@H](O[C@@H]5O[C@H](CO[C@@H]6O[C@H](CO)[C@@H](O)[C@H](O)[C@H]6O)[C@@H](O)[C@H](O)[C@H]5O)C4(C)C)[C@]3(C)[C@H](O)C[C@]12C [mogroside V]
[1]; relative to cane sugar on a weight basis, estimated
  sweetness, times cane sugar: approximately 250 times

## C=C1C[C@@]23CC[C@H]4[C@@](C)(CCC[C@@]4(C)C(=O)O[C@@H]4O[C@H](CO)[C@@H](O)[C@H](O)[C@H]4O)[C@@H]2CC[C@]1(O[C@@H]1O[C@H](CO)[C@@H](O)[C@H](O)[C@H]1O[C@@H]1O[C@@H](C)[C@H](O)[C@@H](O)[C@H]1O)C3 [Dulcoside A]
[1]
  sweetness potency, times higher than sucrose: 30 times

## Rebaudioside B [REBB]
[2]
  water solubility: about 0.1%
[1]
  sweetness potency, times more potent than sucrose: 300-350 times

## C=C1C[C@@]23CC[C@H]4[C@@](C)(CCC[C@@]4(C)C(=O)O[C@@H]4O[C@H](CO)[C@@H](O)[C@H](O)[C@H]4O)[C@@H]2CC[C@]1(O[C@@H]1O[C@H](CO)[C@@H](O)[C@H](O[C@@H]2O[C@H](CO)[C@@H](O)[C@H](O)[C@H]2O)[C@H]1O[C@@H]1O[C@H](CO)[C@@H](O)[C@H](O)[C@H]1O)C3 [Rebaudioside A]
[1]
  sweetness potency, times more potent than sucrose: 350-450 times
[3]
  SL (Sweetness Linger): 5

## N[C@@H](CCC(=O)[O-])C(=O)O.O.[Na+] [MSG Control 2, MSG-H2O]
[4]
  AI (Astringency Intensity) Ave: 0.0
  BI (Bitterness Intensity) Ave: 3.0
  MF (Mouthfeel Intensity) Ave: 3.0
  Sal (Saltiness Intensity) Ave: 2.0
  Sol (Sourness Intensity) Ave: 0.0
  UI (Umami Intensity) Ave: 4.7

## N[C@@H](CCC(=O)[O-])C(=O)O.O.[Na+] [MSG Control 1, MSG-H2O]
[5]; average of eight trials
  AI (Astringency Intensity): 0.0
  BI (Bitterness Intensity): 0.0
  MF (Mouthfeel Intensity): 1.5
  Sal (Saltiness Intensity): 2.0
  Sol (Sourness Intensity): 0.0
  UI (Umami Intensity): 5.0
[5]; mean of eight trials
  MF rating, Mean: 1.50
[5]; trials 1-8
  MF rating, individual trials: 1 (4×) and 2 (4×)
[4]
  AI (Astringency Intensity) Ave: 0.0
  BI (Bitterness Intensity) Ave: 3.0
  MF (Mouthfeel Intensity) Ave: 3.3
  Sal (Saltiness Intensity) Ave: 2.0
  Sol (Sourness Intensity) Ave: 0.0
  UI (Umami Intensity) Ave: 4.7

## OC[C@H]1O[C@@](CO)(O[C@H]2O[C@H](CO)[C@@H](O)[C@H](O)[C@H]2O)[C@@H](O)[C@@H]1O [Sucrose]
[6]
  C/R Function: R = C
[3]
  SL (Sweetness Linger): 0
